In the Deep4Chem optical property database:

Test: solvent given as SMILES

F[B-]1(F)n2cccc2C(c2c3ccccc3cc3ccccc23)=C2C=CC=[N+]21
emission maximum (in CC#N): 519 nm
emission maximum (in CCCCCC): 521 nm
emission maximum (in CCO): 520 nm
emission maximum (in CN(C)C=O): 524 nm
emission maximum (in Cc1ccccc1): 525 nm
emission maximum (in ClCCl): 520 nm

CC[N+](CC)=c1ccc2c(-c3ccccc3C(=O)O)c3oc4cc(N)ccc4c3oc-2c1
emission maximum (in CCO): 622 nm
emission maximum (in ClCCl): 617 nm
emission maximum (in O): 634 nm

N#Cc1cc(C#N)c(-c2cc(-n3c4ccccc4c4ccccc43)cc(-n3c4ccccc4c4ccccc43)c2)cc1-c1cc(-n2c3ccccc3c3ccccc32)cc(-n2c3ccccc3c3ccccc32)c1
emission maximum (in Cc1ccccc1): 372 nm

CCOC(=O)c1c(-c2cc3ccccc3oc2=O)nn(-c2ccc(C)c(C)c2)c1C(=O)OCC
emission maximum (in ClCCl): 408 nm

CCCCN(CCCC)c1ccc(/C=C/c2ccc3nc(/C=C/c4ccc(N(C)C)cc4)c(=O)n(CCC)c3c2)cc1
emission maximum (in C1COCCO1): 559 nm
emission maximum (in CC#N): 651 nm
emission maximum (in ClCCl): 611 nm

CCOC(=O)CCOc1ccc(C(c2c(C)[nH]c3ccccc23)c2c(C)[nH]c3ccccc23)cc1
emission maximum (in C1CCCCC1): 328 nm
emission maximum (in CC#N): 348 nm
emission maximum (in CO): 349 nm
emission maximum (in O): 350 nm

CCn1c(-c2ccc(-c3ccc(-c4ccc(-c5n(CC)c6ccccc6[n+]5CC)cc4)cc3)cc2)[n+](CC)c2ccccc21
emission maximum (in O): 397 nm

CSC1=C2C=C(c3cc4n(c3)[B-](F)(F)[N+]3=CC=CC3=C4c3c(C)cc(C)cc3C)C(C)=[N+]2[B-](F)(F)n2c(C)ccc21
emission maximum (in C1CCCCC1): 652 nm
emission maximum (in CC#N): 740 nm
emission maximum (in CC(C)=O): 694 nm
emission maximum (in CCOC(C)=O): 664 nm
emission maximum (in Cc1ccccc1): 663 nm

COc1cc2sc3nc(-c4ccccc4OC)sc3c2cc1OC
emission maximum (in CS(C)=O): 438 nm

CCN(CC)c1ccc2cc(-c3nc4cc(C(=O)Nc5ccccc5[N+](=O)[O-])ccc4o3)c(=O)oc2c1
emission maximum (in ClCCl): 498 nm

C1=[N+](c2ccccc2)[B-]2(Oc3c1ccc1c4c(ccc31)C=[N+](c1ccccc1)[B-]1(O4)c3ccccc3Oc3ccccc31)c1ccccc1Oc1ccccc12
emission maximum (in Cc1ccccc1): 605 nm
emission maximum (in ClCCl): 599 nm

Cc1cc(C)n2c1C=[N+]1[N+](=C3C=NC=CN3[B-]1(F)F)[B-]2(F)F
emission maximum (in ClCCl): 490 nm

COc1ccc(-n2c(-c3ccc(-c4cncc5ccccc45)cc3)nc3c4ccccc4c4ccccc4c32)cc1
emission maximum (in C1CCOC1): 429 nm

CC(C)c1ccc2ccc3cccc4ccc1c2c34
emission maximum (in CCCCCC): 376 nm
emission maximum (in CO): 376 nm
emission maximum (in ClCCl): 377 nm

CC1(C)c2ccccc2N(c2ccccc2)c2ccc(-c3nc(-c4ccccc4)nc(-c4ccccc4)n3)cc21
emission maximum (in Cc1ccccc1): 430.68 nm
emission maximum (in O=P(c1ccccc1)(c1ccccc1)c1ccccc1Oc1ccccc1P(=O)(c1ccccc1)c1ccccc1): 452 nm

CC(C)c1cccc(C(C)C)c1N1C(=O)c2cc(Cl)c3c4c(Cl)cc5c6c(cc(Cl)c(c7c(Cl)cc(c2c37)C1=O)c64)C(=O)N(c1c(C(C)C)cccc1C(C)C)C5=O
emission maximum (in Cc1ccccc1): 552 nm

CC/[NH+]=c1\cc2oc3cc(NCCO)c4ccccc4c3nc-2cc1C
emission maximum (in CCO): 643 nm
emission maximum (in O): 651 nm

CCCCCCCCCCCCc1sc(CCCCCC)c2c3cc(CCCCCC)sc3c3sc(CCCCCC)cc3c12
emission maximum (in ClC(Cl)Cl): 423 nm

c1ccc(N(c2ccccc2)c2ccc3c4cccc5c(N(c6ccccc6)c6ccccc6)ccc(c6cccc2c63)c54)cc1
emission maximum (in C1CCCCC1): 531 nm
emission maximum (in C1CCOC1): 545 nm
emission maximum (in CC#N): 548 nm
emission maximum (in Cc1ccccc1): 541 nm
emission maximum (in ClCCl): 547 nm

COC(=O)CCC1=CC(C#Cc2ccsc2)=[N+]2C1=Cc1c(CCC(=O)OC)cc(C#Cc3ccsc3)n1[B-]2(F)F
emission maximum (in ClCCl): 653 nm

CCn1c2ccccc2c2cc(-c3cc(-c4ccc5c(c4)c4ccccc4n5CC)nc(-c4ccc(C#N)cc4)n3)ccc21
emission maximum (in C1CCOC1): 408 nm
emission maximum (in CCOC(C)=O): 408 nm
emission maximum (in CN(C)C=O): 422 nm
emission maximum (in Cc1ccccc1): 388 nm
emission maximum (in ClCCl): 417 nm

C[Si]1(C)O[Si](C)(C)c2cc3c(-c4ccccc4)c4cc([N+](=O)[O-])ccc4nc3cc21
emission maximum (in ClCCl): 521 nm
